Experimental data published in patent publication US9926264B2, “Phenylcarbamate derivatives as formyl peptide receptor modulators” (Allergan, Inc., priority 2013, dated 2018).

Target: T1, FPR2 (Homo sapiens, UniProt P25090)
T1 construct: expressed in transfected cells; host or cells: CHO-Gα16 cells
T1 sequence (P25090 1-351): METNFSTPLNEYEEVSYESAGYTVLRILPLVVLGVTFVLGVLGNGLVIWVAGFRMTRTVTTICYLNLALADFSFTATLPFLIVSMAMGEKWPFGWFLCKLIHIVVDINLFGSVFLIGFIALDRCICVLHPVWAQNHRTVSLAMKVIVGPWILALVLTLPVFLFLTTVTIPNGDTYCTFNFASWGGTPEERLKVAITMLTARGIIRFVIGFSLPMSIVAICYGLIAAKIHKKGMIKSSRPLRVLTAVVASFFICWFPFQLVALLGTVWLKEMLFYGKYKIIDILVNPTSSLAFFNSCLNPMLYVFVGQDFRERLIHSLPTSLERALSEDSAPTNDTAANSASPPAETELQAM
Assay: compound-induced calcium activity on FLIPR Tetra in CHO-Gα16 cells stably expressing FPR2
Format: cell-based
Conditions: for Emax: efficacy value in brackets after EC50, read-out: FPR2 Gα16-CHO (% eff); for EC50: tested 0.61 to 10,000 nM
Protocol: CHO-Gα16 cells stably expressing FPR2 were cultured in (F12, 10% FBS, 1% PSA, 400 μg/ml geneticin and 50 μg/ml hygromycin) and HEK-Gqi5 cells stable expressing FPR1 were cultured in (DMEM high glucose, 10% FBS, 1% PSA, 400 μg/ml geneticin and 50 μg/ml hygromycin). In general, the day before the experiment, 18,000 cells/well were plated in a 384-well clear bottom poly-D-lysine coated plate. The following day the screening compound-induced calcium activity was assayed on the FLIPR^Tetra. The drug plates were prepared in 384-well microplates using the EP3 and the MultiPROBE robotic liquid handling systems. Compounds were tested at concentrations ranging from 0.61 to 10,000 nM. Results are expressed as EC50 (nM) and % efficacy values.

Row | Structure (SMILES) | Emax [%] | EC50 [nM]
1 | CC(C)C[C@H](OC(=O)Nc1ccc(C(F)(F)F)cc1)C(=O)O [Intermediate 4, (2S)-4-Methyl-2-({[4-(Trifluoromethyl)phenyl]carbamoyl}oxy)pentanoic acid] | 88 | 24.7
2 | CCCN(CC(=O)O)C(=O)[C@H](CC(C)C)OC(=O)Nc1ccc(C(F)(F)F)cc1 [Compound 37, [{(2S)-4-methyl-2-[({[4-(trifluoromethyl)phenyl]amino}carbonyl)oxy]pentanoyl}(propyl)amino]acetic acid] | 102 | 1.2
3 | CN(CC(=O)O)C(=O)[C@H](Cc1ccccc1)OC(=O)Nc1ccc(Br)cc1 [Compound 41, {[(2S)-2-({[(4-Bromophenyl)amino]carbonyl}oxy)-3-phenylpropanoyl](methyl)amino}acetic acid] | 98 | 0.41
4 | CC(C)C[C@H](OC(=O)Nc1ccc(Br)cc1)C(=O)N(C)CC(=O)OC(C)(C)C [Compound 3, tert-Butyl {[(2S)-2-{[(4-Bromophenyl)carbamoyl]oxy}-4-methylpentanoyl](methyl)amino}acetate] | 101 | 109
5 | CC(C)C[C@H](OC(=O)Nc1ccc(C(F)(F)F)cc1)C(=O)NCc1nnn[nH]1 [Compound 15, (2S)-4-methyl-1-oxo-1-[(1H-tetrazol-5-ylmethyl)amino]pentan-2-yl [4-(trifluoromethyl)phenyl]carbamate] | 96 | 3.6
6 | O=C(Nc1ccc(Br)cc1)O[C@@H](Cc1ccccc1)C(=O)O [Intermediate 4a, (2S)-2-({[(4-bromophenyl)amino]carbonyl}oxy)-3-phenylpropanoic acid] | 103 | 1.43
7 | CC(C)C[C@H](OC(=O)Nc1ccc(C(F)(F)F)cc1)C(=O)N(C)Cc1nnn[nH]1 [Compound 17, (2S)-4-methyl-1-[methyl(1H-tetrazol-5-ylmethyl)amino]-1-oxopentan-2-yl [4-(trifluoromethyl)phenyl]carbamate] | 91 | 2.4
8 | CCOP(=O)(CNC(=O)[C@H](CC(C)C)OC(=O)Nc1ccc(Br)cc1)OCC [Compound 8, Diethyl ({[(2S)-2-{[(4-bromophenyl)carbamoyl]oxy}-4-methylpentanoyl]amino}methyl)phosphonate] | 100 | 1.8
9 | CC(C)C[C@H](OC(=O)Nc1ccc(Br)cc1)C(=O)N(C)Cc1nnn[nH]1 [Compound 16, (2S)-4-methyl-1-[methyl(1H-tetrazol-5-ylmethyl)amino]-1-oxopentan-2-yl (4-bromophenyl)carbamate] | 98 | 0.81
10 | CC(C)C[C@H](OC(=O)Nc1ccc(C(F)(F)F)cc1)C(=O)NCS(=O)(=O)O [Compound 28, ({(2S)-4-methyl-2-[({[4-(trifluoromethyl)phenyl]amino}carbonyl)oxy]pentanoyl}amino)methanesulfonic acid] | 85 | 4.3
11 | CCCN(CC(=O)OC(C)(C)C)C(=O)[C@H](CC(C)C)OC(=O)Nc1ccc(C(F)(F)F)cc1 [Compound 29, tert-Butyl [{(2S)-4-methyl-2-[({[4-(trifluoromethyl)phenyl]amino}carbonyl)oxy]pentanoyl}(propyl)amino]acetate] | 101 | 11.4
12 | CC(C)C[C@H](OC(=O)Nc1ccc(Br)cc1)C(=O)N(C)CCOS(=O)(=O)O [Compound 27, (2S)-4-Methyl-1-{methyl[2-(sulfooxy)ethyl]amino}-1-oxopentan-2-yl (4-bromophenyl)carbamate] | 99 | 8.7
13 | CC(C)(C)OC(=O)[C@H](Cc1ccccc1)OC(=O)Nc1ccc(Br)cc1 [Intermediate 2a, tert-Butyl (2S)-2-({[(4-bromophenyl)amino]carbonyl}oxy)-3-phenyl propanoate] | 55 | 2190
14 | CN(CC(=O)OC(C)(C)C)C(=O)[C@H](Cc1ccccc1)OC(=O)Nc1ccc(Br)cc1 [Compound 36, tert-Butyl {[(2S)-2-({[(4-bromophenyl)amino]carbonyl}oxy)-3-phenylpropanoyl](methyl)amino}acetate] | 105 | 11.7
15 | CC(C)(C)OC(=O)CNC(=O)[C@H](Cc1ccccc1)OC(=O)Nc1ccc(Br)cc1 [Compound 34, tert-Butyl {[(2S)-2-({[(4-bromophenyl)amino]carbonyl}oxy)-3-phenylpropanoyl]amino}acetate] | 103 | 106
16 | CC(C)C[C@H](OC(=O)Nc1ccc(C(F)(F)F)cc1)C(=O)N(CC(=O)O)C(C)C [Compound 38, (Isopropyl{(2S)-4-methyl-2-[({[4-(trifluoromethyl)phenyl]amino}carbonyl)oxy]pentanoyl}amino)acetic acid] | 107 | 0.66
17 | O=C(Nc1ccc(Br)cc1)O[C@@H](Cc1ccccc1)C(=O)NCc1nnn[nH]1 [Compound 35, (1S)-1-benzyl-2-oxo-2-[(1H-tetrazol-5-ylmethyl)amino]ethyl (4-bromophenyl)carbamate] | 103 | 0.83
18 | CC(C)C[C@H](OC(=O)Nc1ccc(C(F)(F)F)cc1)C(=O)N(C)CC(=O)O [Compound 25, {Methyl[(2S)-4-methyl-2-({[4-(trifluoromethyl)phenyl]carbamoyl}oxy)pentanoyl]amino}acetic acid] | 97 | 0.94
19 | CC(C)C[C@H](OC(=O)Nc1ccc(C(F)(F)F)cc1)C(=O)N(C)CC(=O)OC(C)(C)C [Compound 12, tert-Butyl {Methyl[(2S)-4-methyl-2-({[4-(trifluoromethyl)phenyl]carbamoyl}oxy)pentanoyl]amino}acetate] | 100 | 24.8
20 | CCN(CC(=O)OC(C)(C)C)C(=O)[C@H](CC(C)C)OC(=O)Nc1ccc(C(F)(F)F)cc1 [Compound 13, tert-Butyl {Ethyl[(2S)-4-methyl-2-({[4-(trifluoromethyl)phenyl]carbamoyl}oxy)pentanoyl]amino}acetate] | 99 | 16.6

Other lines, results leading:

Row | Emax [%] | EC50 [nM] | Structure (SMILES)
21 | 101 | 1.3 | CC(C)C[C@H](OC(=O)Nc1ccc(Br)cc1)C(=O)NCc1nnn[nH]1 [Compound 14, (2S)-4-Methyl-1-oxo-1-[(1H-tetrazol-5-ylmethyl)amino]pentan-2-yl (4-bromophenyl)carbamate]
22 | 95 | 0.24 | CCN(CC(=O)O)C(=O)[C@H](CC(C)C)OC(=O)Nc1ccc(Br)cc1 [Compound 24, {[(2S)-2-{[(4-Bromophenyl)carbamoyl]oxy}-4-methylpentanoyl](ethyl)amino}acetic acid]
23 | 98 | 35 | CC(C)C[C@H](OC(=O)Nc1ccc(Br)cc1)C(=O)NCCO [Compound 7, (2S)-1-[(2-Hydroxyethyl)amino]-4-methyl-1-oxopentan-2-yl (4-bromophenyl)carbamate]
24 | 89 | 526 | CC(C)C[C@H](OC(=O)Nc1ccc(Br)cc1)C(=O)NCC(=O)OC(C)(C)C [Compound 1, tert-Butyl {[(2S)-2-{[(4-Bromophenyl)carbamoyl]oxy}-4-methylpentanoyl]amino}acetate]
25 | 97 | 59 | CC(C)C[C@H](OC(=O)Nc1ccc(Br)cc1)C(=O)N(C)CCO [Compound 4, (2S)-1-[(2-Hydroxyethyl)(methyl)amino]-4-methyl-1-oxopentan-2-yl (4-bromophenyl)carbamate]
26 | 101 | 0.84 | CC(C)C[C@H](OC(=O)Nc1ccc(Br)cc1)C(=O)NCC(=O)O [Compound 19, {[(2S)-2-{[(4-Bromophenyl)carbamoyl]oxy}-4-methylpentanoyl]amino}acetic acid]
27 | 99 | 125 | CC(C)C[C@H](OC(=O)Nc1ccc(Br)cc1)C(=O)NCCNS(=O)(=O)N(C)C [Compound 42, (1S)-1-{[(2-{[(Dimethylamino)sulfonyl]amino}ethyl)amino]carbonyl}-3-methylbutyl (4-bromophenyl)carbamate]
28 | 95 | 1.3 | O=C(O)CNC(=O)[C@H](Cc1ccccc1)OC(=O)Nc1ccc(Br)cc1 [Compound 40, {[(2S)-2-({[(4-bromophenyl)amino]carbonyl}oxy)-3-phenylpropanoyl]amino}acetic acid]
29 | 89 | 78 | CC(C)C[C@H](OC(=O)Nc1ccc(Br)cc1)C(=O)NCCN [Compound 39, (1S)-1-{[(2-aminoethyl)amino]carbonyl}-3-methylbutyl (4-bromophenyl) carbamate]
30 | 85 | 8.6 | CC(C)C[C@H](OC(=O)Nc1ccc(Br)cc1)C(=O)O [Intermediate 3, (2S)-2-{[(4-Bromophenyl)carbamoyl]oxy}-4-methylpentanoic acid]
31 | 91 | 0.44 | CCCN(CC(=O)O)C(=O)[C@H](CC(C)C)OC(=O)Nc1ccc(Br)cc1 [Compound 22, {[(2S)-2-{[(4-Bromophenyl)carbamoyl]oxy}-4-methylpentanoyl](propyl)amino}acetic acid]
